Results on two molecules are retold here after patent publication US12077503B2, “Substituted cyclic amides and their use as herbicides” (FMC CORPORATION, priority 2015, dated 2024).

Like-named read-outs stand apart in the source and are kept apart here.

Type in all cases: in vivo
Assay [1] concerns blackgrass (Alopecurus myosuroides). Description: Test A postemergence. The note with it: Alopecurus myosuroides, post-emergence, 240 h; for pest or weed control at 125 g/ha: 125 g ai/ha. The gist of the method: (§1)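 Treatment is preemergence as a directed soil spray after planting, or postemergence at the one- to two-leaf stage, with test chemical in a non-phytotoxic solvent mixture plus surfactant. Plants stay in the greenhouse about 10 d before visual injury scoring on a 0 to 100 scale versus untreated controls.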

The subject of assay [2] is ragweed (common ragweed, Ambrosia elatior). Description: Test A postemergence. The note with it: Ambrosia artemisiifolia, post-emergence, 240 h; for pest or weed control at 125 g/ha: 125 g ai/ha. The gist of the method: as §1
Assay [3] has as its system pigweed (Amaranthus retroflexus). Description: Test A postemergence. The conditions noted are these: Amaranthus retroflexus, post-emergence, 240 h; for pest or weed control at 125 g/ha: 125 g ai/ha. The method, boiled down: as §1
For assay [4], the system named is giant foxtail (Setaria faberii). Description: Test A postemergence. The conditions noted are these: Setaria faberi, post-emergence, 240 h; for pest or weed control at 125 g/ha: 125 g ai/ha. The gist of the method:
as §1

Another assay has as its system Kochia (Kochia scoparia). Description: Test A postemergence. The conditions noted are these: Bassia scoparia, post-emergence, 240 h; for pest or weed control at 125 g/ha: 125 g ai/ha. The gist of the method: as §1
Assay [5] relates to barnyardgrass (Echinochloa crus-galli). Description: Test A postemergence. The conditions noted are these: Echinochloa crus-galli, post-emergence, 240 h; for pest or weed control at 125 g/ha: 125 g ai/ha. The method, boiled down: as §1
Assay [6] has as its system Galium (catchweed bedstraw, Galium aparine). Description: Test A postemergence. The conditions noted are these: Galium, post-emergence, 240 h; for pest or weed control at 125 g/ha: 125 g ai/ha. The gist of the method:
as §1

Assay [7] relates to wheat (Triticum aestivum). Description: Test A postemergence. The note with it: Triticum aestivum, post-emergence, 240 h, Postemergence. The method, boiled down: as §1
For the next assay, the system named is corn (Zea mays). Description: Test A postemergence. The conditions noted are these: Zea mays, post-emergence, 240 h. The method, boiled down: as §1
The subject of assay [8] is ryegrass, Italian (Italian ryegrass, Lolium multiflorum). Description: Test A postemergence. The note with it: Lolium multiflorum, post-emergence, 240 h; for pest or weed control at 125 g/ha: 125 g ai/ha. The method, boiled down:
as §1

The subject of a further assay is rice (Oryra sativa). Description: Test B flooded paddy test. The note with it: Oryza sativa, Flood, 250 g ai/ha, read-out: Rice plant response rating. The gist of the method: (§2)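 Compound goes directly into floodwater once pots are flooded 3 cm above soil, targeting plants at two leaves; the water depth is then held for the test duration. Plants sit 13–15 d in a greenhouse and are rated visually, 100 denoting complete control.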

Assay [9] has as its system barnyardgrass (Echinochloa crus-galli). Description: Test B flooded paddy test. The conditions noted are these: Echinochloa crus-galli, Flood, 250 g ai/ha, read-out: Barnyardgrass plant response rating. The gist of the method:
as §2

The subject of assay [10] is ducksalad (Heteranthera limosa). Description: Test B flooded paddy test. The conditions noted are these: Heteranthera limosa, Flood, 250 g ai/ha, read-out: Ducksalad plant response rating. The gist of the method: as §2
Assay [11] has as its system sedge, umbrella (small-flower umbrella sedge, Cyperus difformis). Description: Test B flooded paddy test. The conditions noted are these: Cyperus difformis, Flood, 250 g ai/ha, read-out: Sedge, Umbrella plant response rating. The gist of the method:
as §2

Where [12] appears, read: scale of 0 to 100 where 0 is no effect and 100 is complete control.
The mark [13] stands for this setting: 0 to 100 scale where 0 is no effect and 100 is complete control.

For the molecule `Cc1cc([C@H]2CN(C)C(=O)[C@@H]2C(=O)Nc2cccc(F)c2F)cc(C)c1C` [Compound 796], the pest or weed control at 125 g/ha in [1] (postemergence, visual injury after approximately 10 d, 0 to 100 scale (0 no effect, 100 complete control), read-out: Plant response rating, Blackgrass) was 30%; in assay [2] (postemergence, visual injury after approximately 10 d, 0 to 100 scale (0 no effect, 100 complete control), read-out: Plant response rating, Ragweed), 0%; in [3] (postemergence, visual injury after approximately 10 d, 0 to 100 scale (0 no effect, 100 complete control), read-out: Plant response rating, Pigweed), 20%; in [4] (postemergence, visual injury after approximately 10 d, 0 to 100 scale (0 no effect, 100 complete control), read-out: Plant response rating, Foxtail, Giant) it was 90%; in the assay with Kochia (Kochia scoparia) (postemergence, visual injury after approximately 10 d, 0 to 100 scale (0 no effect, 100 complete control), read-out: Plant response rating, Kochia), 0%; in [5] (postemergence, visual injury after approximately 10 d, 0 to 100 scale (0 no effect, 100 complete control), read-out: Plant response rating, Barnyardgrass), 90%. Moreover, the pest or weed control at 125 g/ha in assay [6] (postemergence, visual injury after approximately 10 d, 0 to 100 scale (0 no effect, 100 complete control), read-out: Plant response rating, Galium) was determined as 40%; in assay [8] (postemergence, visual injury after approximately 10 d, 0 to 100 scale (0 no effect, 100 complete control), read-out: Plant response rating, Ryegrass, Italian), 40%. The pest or weed control at 31 g/ha is 0% in [1] (Postemergence, 31 g ai/ha, visual injury after approx. 10 d, 0 to 100 scale, 0 no effect, 100 complete control, read-out: Plant response rating, Blackgrass); 0% in assay [2] (Postemergence, 31 g ai/ha, visual injury after approx. 10 d, 0 to 100 scale, 0 no effect, 100 complete control, read-out: Plant response rating, Ragweed); 0% in assay [3] (Postemergence, 31 g ai/ha, visual injury after approx. 10 d, 0 to 100 scale, 0 no effect, 100 complete control, read-out: Plant response rating, Pigweed); 80% in assay [4] (Postemergence, 31 g ai/ha, visual injury after approx. 10 d, 0 to 100 scale, 0 no effect, 100 complete control, read-out: Plant response rating, Foxtail, Giant); 0% with Kochia (Kochia scoparia) (Postemergence, 31 g ai/ha, visual injury after approx. 10 d, 0 to 100 scale, 0 no effect, 100 complete control, read-out: Plant response rating, Kochia); 80% in assay [5] (Postemergence, 31 g ai/ha, visual injury after approx. 10 d, 0 to 100 scale, 0 no effect, 100 complete control, read-out: Plant response rating, Barnyardgrass). Also, the pest or weed control at 31 g/ha in [6] (Postemergence, 31 g ai/ha, visual injury after approx. 10 d, 0 to 100 scale, 0 no effect, 100 complete control, read-out: Plant response rating, Galium) stood at 0%; in assay [8] (Postemergence, 31 g ai/ha, visual injury after approx. 10 d, 0 to 100 scale, 0 no effect, 100 complete control, read-out: Plant response rating, Ryegrass, Italian), 0%. Besides, the plant injury at 31 g/ha in assay [7] (31 g ai/ha, visual injury after approx. 10 d, 0 to 100 scale, 0 no effect, 100 complete control, read-out: Plant response rating, Wheat) is 30%. In the assay on corn (Zea mays) (125 g ai/ha, postemergence, visual injury after approximately 10 d, 0 to 100 scale (0 no effect, 100 complete control)), this molecule yielded a Corn plant response rating (crop injury, 0 = no effect, 100 = complete kill) at 125 g/ha of 90%. The Corn plant response rating (crop injury, 0 = no effect, 100 = complete kill) at 31 g/ha in the assay with corn (Zea mays) (Postemergence, 31 g ai/ha, visual injury after approx. 10 d, 0 to 100 scale, 0 no effect, 100 complete control) was 70%. Also, the pest or weed control at 250 g/ha in the assay with rice (Oryra sativa) (setting [12]) amounted to 40%; in assay [9] (setting [12]) it was 70%; in assay [10] (setting [12]), 90%; in assay [11] (setting [12]), 0%.
Regarding `Cc1nc([C@H]2CN(C)C(=O)[C@@H]2C(=O)Nc2cccc(F)c2F)cs1` [Compound 1281], the pest or weed control at 125 g/ha in assay [1] (Postemergence, visual rating about 10 d after treatment, read-out: Blackgrass plant response rating (0 to 100 scale)) worked out at 0%; in [2] (Postemergence, visual rating about 10 d after treatment, read-out: Ragweed plant response rating (0 to 100 scale)), 0%; in [3] (Postemergence, visual rating about 10 d after treatment, read-out: Pigweed plant response rating (0 to 100 scale)), 0%; in [4] (Postemergence, visual rating about 10 d after treatment, read-out: Foxtail, Giant plant response rating (0 to 100 scale)), 20%; in the assay with Kochia (Kochia scoparia) (Postemergence, visual rating about 10 d after treatment, read-out: Kochia plant response rating (0 to 100 scale)), 0%; in assay [5] (Postemergence, visual rating about 10 d after treatment, read-out: Barnyardgrass plant response rating (0 to 100 scale, 0 no effect, 100 complete control)), 20%. Moreover, the pest or weed control at 125 g/ha in assay [6] (Postemergence, visual rating about 10 d after treatment, read-out: Galium plant response rating (0 to 100 scale)) came out at 0%; in assay [8] (Postemergence, visual rating about 10 d after treatment, read-out: Ryegrass, Italian plant response rating (0 to 100 scale)), 0%. Also, the pest or weed control at 500 g/ha turned out to be 0% in [1] (Postemergence, 500 g ai/ha, visual injury, 0 to 100 scale (0 no effect, 100 complete control), approx. 10 d, read-out: Plant response rating, Blackgrass); 0% in [2] (Postemergence, 500 g ai/ha, visual injury, 0 to 100 scale (0 no effect, 100 complete control), approx. 10 d, read-out: Plant response rating, Ragweed); 0% in assay [3] (Postemergence, 500 g ai/ha, visual injury, 0 to 100 scale (0 no effect, 100 complete control), approx. 10 d, read-out: Plant response rating, Pigweed); 30% in assay [4] (Postemergence, 500 g ai/ha, visual injury, 0 to 100 scale (0 no effect, 100 complete control), approx. 10 d, read-out: Plant response rating, Foxtail, Giant); 30% in the assay with Kochia (Kochia scoparia) (Postemergence, 500 g ai/ha, visual injury, 0 to 100 scale (0 no effect, 100 complete control), approx. 10 d, read-out: Plant response rating, Kochia); 80% in assay [5] (Postemergence, 500 g ai/ha, visual injury, 0 to 100 scale (0 no effect, 100 complete control), approx. 10 d, read-out: Plant response rating, Barnyardgrass). Further, the pest or weed control at 500 g/ha in [6] (Postemergence, 500 g ai/ha, visual injury, 0 to 100 scale (0 no effect, 100 complete control), approx. 10 d, read-out: Plant response rating, Galium) came out at 50%; in [8] (Postemergence, 500 g ai/ha, visual injury, 0 to 100 scale (0 no effect, 100 complete control), approx. 10 d, read-out: Plant response rating, Ryegrass, Italian), 0%. Besides, the plant injury at 125 g/ha came out at 0% in [7] (125 g ai/ha, visual rating about 10 d after treatment, read-out: Wheat plant response rating (0 to 100 scale)) and 0% with corn (Zea mays) (125 g ai/ha, Postemergence, visual rating about 10 d after treatment, read-out: Corn plant response rating (0 to 100 scale)). Besides, the plant injury at 500 g/ha in assay [7] (500 g ai/ha, visual injury, 0 to 100 scale (0 no effect, 100 complete control), approx. 10 d, read-out: Plant response rating, Wheat) was 0%. The same molecule registered a Corn plant response rating (crop injury, 0 = no effect, 100 = complete kill) at 500 g/ha in the assay on corn (Zea mays) (Postemergence, 500 g ai/ha, visual injury, 0 to 100 scale (0 no effect, 100 complete control), approx. 10 d) of 0%. Also, the pest or weed control at 250 g/ha stood at 0% with rice (Oryra sativa) (setting [13]), 0% in assay [9] (setting [13]), 50% in [10] (setting [13]) and 0% in assay [11] (setting [13]).
